Data published in patent US20240252581A1, “COMPOSITIONS AND METHODS FOR TREATING RESPIRATORY DISTRESS” (S.I.S. SHULOV INNOVATIVE SCIENCE LTD., priority 2021, published 2024).
Square brackets hold non-standard residues; d marks the D form. Peptide text beside a SMILES is read from it. * marks the point of attachment. pGlu = O=C1CC[C@@H](C(=O)O)N1; Octanoyl = CCCCCCCC(=O)*

Assay: Toxicity of ZEP3Na in intratracheal administration, daily for 14 days
Type: in vivo, rats
Experimental: The toxicological effect of ZEP3Na administered intratracheally to rats was evaluated. Doses of 0.5, 1.0, and 2.5 mg ZEP3Na dissolved in saline were administered daily into the lungs for a period of 14 days. On day 15, necroscopy and histology of brain, heart, thymus, lungs, spleen, liver, kidneys, and gonads were performed. In addition, blood cell counts and chemistry parameters were counted. Also, the cell distribution (%) of the bronchial alveolar lavage fluid (BALF) was determined by FACS instrumentation for B cells, T cells, neutrophils, and macrophages.

[1] = rats, 0.5, 1.0, and 2.5 mg intratracheally daily for 14 days

Structure (SMILES): CCCCCCCC(=O)NCCCC[C@H](NC(=O)[C@H](Cc1c[nH]c2ccccc12)NC(=O)[C@H](CC(N)=O)NC(=O)[C@@H]1CCC(=O)N1)C(=O)O [ZEP3Na, pGlu-Asn-Trp-Lys(Octanoyl)-ONa] ([pGlu]NWK(Octanoyl)-OH)
- blood counts and chemistry [1]: comparable to the reference items
- body weight [1]: remained similar to that of the control group
- mortality or abnormal signs of behavior [1]: No mortality or abnormal signs of behavior
- distribution of B cells, T cells, neutrophils, and macrophages in BALF (rats, 0.5, 1.0, and 2.5 mg intratracheally daily for 14 days, FACS): No changes
- necroscopy and histology of the inspected organs (rats, day 15, brain, heart, thymus, lungs, spleen, liver, kidneys, gonads): no pathological changes
- adverse effects in all parameters tested (rats, intratracheal, up to 2.5 mg daily for 14 days): did not result in any detectable adverse effects
